Experimental data: the CombiSolv-Exp solvation set (Vermeire and Green 2021)

Experiment: solvent given as SMILES

For `c1ccccc1`, the “solvation free energy, 298 K” value (in BrC(Br)C(Br)Br) was -4.27 kcal/mol, the “solvation free energy, 298 K” value (in Brc1cccc2ccccc12) was -4.1 kcal/mol and the “solvation free energy, 298 K” value (in C1=CCCCC1) was -4.37 kcal/mol. The “solvation free energy, 298 K” value (in C1=Cc2ccccc2C1) was -4.39 kcal/mol, the “solvation free energy, 298 K” value (in C1CCC(C2CCCCC2)CC1) was -3.96 kcal/mol and the “solvation free energy, 298 K” value (in C1CCCCC1) was -4.21 kcal/mol. The “solvation free energy, 298 K” value (in C1CCOC1) was -4.75 kcal/mol, the “solvation free energy, 298 K” value (in C1COCCO1) was -4.53 kcal/mol and the “solvation free energy, 298 K” value (in C=CCCCCCCCCCCCCCC) was -3.83 kcal/mol. The “solvation free energy, 298 K” value (in CC1CCCC1) was -4.19 kcal/mol, the “solvation free energy, 298 K” value (in CC1CCS(=O)(=O)C1) was -4.11 kcal/mol and the “solvation free energy, 298 K” value (in CC1COC(=O)O1) was -3.88 kcal/mol. The “solvation free energy, 298 K” value (in CC#N) was -4.25 kcal/mol, the “solvation free energy, 298 K” value (in CC(=O)CC(C)C) was -4.44 kcal/mol and the “solvation free energy, 298 K” value (in CC(=O)N(C)C) was -4.29 kcal/mol. The “solvation free energy, 298 K” value (in CC(=O)O) was -3.94 kcal/mol, the “solvation free energy, 298 K” value (in CC(=O)OCc1ccccc1) was -4.26 kcal/mol and the “solvation free energy, 298 K” value (in CC(=O)c1ccccc1) was -4.28 kcal/mol. For the same compound, the “solvation free energy, 298 K” value (in CC(C)(C)O) was -3.71 kcal/mol, the “solvation free energy, 298 K” value (in CC(C)=O) was -4.42 kcal/mol and the “solvation free energy, 298 K” value (in CC(C)CC(C)(C)C) was -3.95 kcal/mol. For the same compound, the “solvation free energy, 298 K” value (in CC(C)CCCC(C)CCCC(C)CCCCC(C)CCCC(C)CCCC(C)C) was -3.69 kcal/mol, the “solvation free energy, 298 K” value (in CC(C)CO) was -3.71 kcal/mol and the “solvation free energy, 298 K” value (in CC(C)O) was -3.71 kcal/mol. The “solvation free energy, 298 K” value (in CC(O)CO) was -3.21 kcal/mol, the “solvation free energy, 298 K” value (in CCC#N) was -4.47 kcal/mol and the “solvation free energy, 298 K” value (in CCC(C)=O) was -4.49 kcal/mol. The “solvation free energy, 298 K” value (in CCC(C)O) was -3.78 kcal/mol, the “solvation free energy, 298 K” value (in CCCC#N) was -4.29 kcal/mol and the “solvation free energy, 298 K” value (in CCCCC#N) was -4.42 kcal/mol. The “solvation free energy, 298 K” value (in CCCCC(CC)COC(=O)CCCCC(=O)OCC(CC)CCCC) was -4.09 kcal/mol, the “solvation free energy, 298 K” value (in CCCCC(CC)COC(=O)c1ccccc1C(=O)OCC(CC)CCCC) was -3.9 kcal/mol and the “solvation free energy, 298 K” value (in CCCCCC) was -4.03 kcal/mol. The “solvation free energy, 298 K” value (in CCCCCC#N) was -4.36 kcal/mol, the “solvation free energy, 298 K” value (in CCCCCCC) was -4 kcal/mol and the “solvation free energy, 298 K” value (in CCCCCCCC) was -3.96 kcal/mol. For the same compound, the “solvation free energy, 298 K” value (in CCCCCCCCCC) was -3.98 kcal/mol, the “solvation free energy, 298 K” value (in CCCCCCCCCCCC) was -3.85 kcal/mol and the “solvation free energy, 298 K” value (in CCCCCCCCCCCCCCCC) was -3.82 kcal/mol. For the same compound, the “solvation free energy, 298 K” value (in CCCCCCCCCCCCO) was -3.74 kcal/mol, the “solvation free energy, 298 K” value (in CCCCCCCCCCO) was -3.59 kcal/mol and the “solvation free energy, 298 K” value (in CCCCCCCCCOC(=O)c1ccccc1C(=O)OCCCCCCCCC) was -3.98 kcal/mol. The “solvation free energy, 298 K” value (in CCCCCCCCO) was -3.81 kcal/mol, the “solvation free energy, 298 K” value (in CCCCCCCO) was -3.83 kcal/mol and the “solvation free energy, 298 K” value (in CCCCCO) was -3.86 kcal/mol. The “solvation free energy, 298 K” value (in CCCCCl) was -4.46 kcal/mol, the “solvation free energy, 298 K” value (in CCCCN(C=O)CCCC) was -4.26 kcal/mol and the “solvation free energy, 298 K” value (in CCCCOC(=O)c1ccccc1C(=O)OCCCC) was -4.23 kcal/mol. The “solvation free energy, 298 K” value (in CCCCOC(C)=O) was -3.87 kcal/mol, the “solvation free energy, 298 K” value (in CCCCOCCCC) was -4.11 kcal/mol and the “solvation free energy, 298 K” value (in CCCO) was -3.84 kcal/mol. For the same compound, the “solvation free energy, 298 K” value (in CCN1CCCC1=O) was -4.5 kcal/mol, the “solvation free energy, 298 K” value (in CCN(CC)C(C)=O) was -4.39 kcal/mol and the “solvation free energy, 298 K” value (in CCNC(C)=O) was -4 kcal/mol. The “solvation free energy, 298 K” value (in CCNC=O) was -3.94 kcal/mol, the “solvation free energy, 298 K” value (in CCO) was -3.88 kcal/mol and the “solvation free energy, 298 K” value (in CCOC(=O)c1ccccc1C(=O)OCC) was -4.06 kcal/mol. The “solvation free energy, 298 K” value (in CCOC(C)=O) was -4.42 kcal/mol, the “solvation free energy, 298 K” value (in CN1CCCC1=O) was -4.43 kcal/mol and the “solvation free energy, 298 K” value (in CN1CCCCC1=O) was -4.47 kcal/mol. The “solvation free energy, 298 K” value (in CN(C)P(=O)(N(C)C)N(C)C) was -4.31 kcal/mol, the “solvation free energy, 298 K” value (in CNC(C)=O) was -3.87 kcal/mol and the “solvation free energy, 298 K” value (in CNC=O) was -3.83 kcal/mol. For the same compound, the “solvation free energy, 298 K” value (in CO) was -3.85 kcal/mol, the “solvation free energy, 298 K” value (in COC(=O)OC) was -4.41 kcal/mol and the “solvation free energy, 298 K” value (in COC(C)(C)C) was -4.31 kcal/mol. For the same compound, the “solvation free energy, 298 K” value (in COC(C)=O) was -4.38 kcal/mol, the “solvation free energy, 298 K” value (in COCCO) was -4.02 kcal/mol and the “solvation free energy, 298 K” value (in CS(C)=O) was -3.96 kcal/mol. The “solvation free energy, 298 K” value (in Cc1ccc(C)cc1) was -4.37 kcal/mol, the “solvation free energy, 298 K” value (in Cc1cccc2ccccc12) was -4.17 kcal/mol and the “solvation free energy, 298 K” value (in Cc1cccc(C)c1) was -4.36 kcal/mol. The “solvation free energy, 298 K” value (in Cc1cccc(O)c1) was -4 kcal/mol, the “solvation free energy, 298 K” value (in Cc1ccccc1) was -4.47 kcal/mol and the “solvation free energy, 298 K” value (in ClC(Cl)(Cl)Cl) was -4.42 kcal/mol. The “solvation free energy, 298 K” value (in ClC(Cl)C(Cl)Cl) was -4.59 kcal/mol, the “solvation free energy, 298 K” value (in ClC(Cl)Cl) was -4.79 kcal/mol and the “solvation free energy, 298 K” value (in ClCBr) was -4.74 kcal/mol. For the same compound, the “solvation free energy, 298 K” value (in ClCCCl) was -4.59 kcal/mol, the “solvation free energy, 298 K” value (in ClCCl) was -4.8 kcal/mol and the “solvation free energy, 298 K” value (in Clc1cccc2ccccc12) was -4.07 kcal/mol. For the same compound, the “solvation free energy, 298 K” value (in Clc1ccccc1) was -4.44 kcal/mol, the “solvation free energy, 298 K” value (in N#CCCCC#N) was -3.59 kcal/mol and the “solvation free energy, 298 K” value (in N#CCCCCC#N) was -3.92 kcal/mol. For the same compound, the “solvation free energy, 298 K” value (in N#CCCO) was -3.5 kcal/mol, the “solvation free energy, 298 K” value (in N#CCc1ccccc1) was -4.13 kcal/mol and the “solvation free energy, 298 K” value (in N#Cc1ccccc1) was -4.35 kcal/mol. The “solvation free energy, 298 K” value (in NC=O) was -2.69 kcal/mol, the “solvation free energy, 298 K” value (in NCCN) was -3.63 kcal/mol and the “solvation free energy, 298 K” value (in NCCO) was -3.09 kcal/mol. For the same compound, the “solvation free energy, 298 K” value (in NCc1ccccc1) was -4.23 kcal/mol, the “solvation free energy, 298 K” value (in Nc1ccccc1) was -4.07 kcal/mol and the “solvation free energy, 298 K” value (in O) was -0.87 kcal/mol. The “solvation free energy, 298 K” value (in O=C1CCCCC1) was -4.55 kcal/mol, the “solvation free energy, 298 K” value (in O=C1CCCO1) was -4.16 kcal/mol and the “solvation free energy, 298 K” value (in O=C(O)C(Cl)Cl) was -4.09 kcal/mol. For the same compound, the “solvation free energy, 298 K” value (in O=CN1CCOCC1) was -4.02 kcal/mol, the “solvation free energy, 298 K” value (in O=Cc1ccco1) was -4.04 kcal/mol and the “solvation free energy, 298 K” value (in OC1CCCCC1) was -3.85 kcal/mol. The “solvation free energy, 298 K” value (in OCC1CCCO1) was -4.04 kcal/mol, the “solvation free energy, 298 K” value (in OCCCCCO) was -3.33 kcal/mol and the “solvation free energy, 298 K” value (in OCCCCO) was -3.36 kcal/mol. The “solvation free energy, 298 K” value (in OCCCO) was -3.12 kcal/mol, the “solvation free energy, 298 K” value (in OCCCl) was -3.65 kcal/mol and the “solvation free energy, 298 K” value (in OCCO) was -2.76 kcal/mol. For the same compound, the “solvation free energy, 298 K” value (in OCCOCCO) was -3.38 kcal/mol, the “solvation free energy, 298 K” value (in OCCOCCOCCO) was -3.43 kcal/mol and the “solvation free energy, 298 K” value (in OCCOCCOCCOCCO) was -3.56 kcal/mol. For the same compound, the “solvation free energy, 298 K” value (in OCCS) was -3.62 kcal/mol, the “solvation free energy, 298 K” value (in OCCc1ccccc1) was -3.96 kcal/mol and the “solvation free energy, 298 K” value (in OCc1ccccc1) was -3.94 kcal/mol. The “solvation free energy, 298 K” value (in OCc1ccco1) was -3.89 kcal/mol, the “solvation free energy, 298 K” value (in S=C=S) was -4.51 kcal/mol and the “solvation free energy, 298 K” value (in [2H]O[2H]) was -1.01 kcal/mol. For the same compound, the “solvation free energy, 298 K” value (in c1ccc2c(c1)CCCC2) was -4.33 kcal/mol, the “solvation free energy, 298 K” value (in c1ccc2ncccc2c1) was -4.31 kcal/mol and the “solvation free energy, 298 K” value (in c1ccc(C2CCCCC2)cc1) was -4.19 kcal/mol. The “solvation free energy, 298 K” value (in c1ccncc1) was -4.51 kcal/mol and the “solvation free energy, 298 K” value (in c1ccsc1) was -4.61 kcal/mol.
In the case of `CNCCc1ccc(O)cc1`, the “solvation free energy, 298 K” value (in C=CCCCCCCC=C) is reported as -9.48 kcal/mol and the “solvation free energy, 298 K” value (in O) is reported as -11.9 kcal/mol.
With `CCCCCCCCCC(C)=O` the “solvation free energy, 298 K” value (in O) was -2.15 kcal/mol.
In the case of `O=C(OC1CCCCCC1)c1ccccc1C(=O)OC1CCCCCC1`, the “solvation free energy, 298 K” value (in O) is reported as -8.87 kcal/mol.
